From patent US20110301222A1, “COMBINATION THERAPY FOR THE TREATMENT OF CANCER” (Isis Pharmaceuticals, Inc., priority 2008, published 2011)
Marks after values point to notes of the source that are not given here. In the oligonucleotide strings, read from the 5' end, every base follows the letter of its sugar. An asterisk marks phosphorothioate; unmarked linkages are phosphodiester. Other units and linkages are bracketed, terminal groups are in braces. A string of capitals states the bases alone. e = 2'-O-(2-methoxyethyl) (MOE); [5mC] = 5-methylcytosine; d = 2'-deoxy (DNA)

Columns and labels:
Assay type in all cases: in vivo, athymic nude mice
[1] = tested on: PC-3 Hormone-Refractory Prostate Cancer Xenograft; assay: PC-3 hormone-refractory prostate cancer xenograft tumor volume in mice; conditions: for Mean Tumor Volume: ASO 50 mg/kg i.v., Taxotere 10 mg/kg IP once weekly, from 8 days after first ASO dose; for Percent Reduction in Mean Tumor Volumes (observed): Prostate PC3, Day 35, vs. vehicle control, negative = reduction, Taxotere 10 mg/kg
Experimental: (§1) To determine whether the eIF-4E ASO complements or enhances the activity of docetaxel, the effect of the combined use of the eIF-4E ASO and docetaxel on tumor volume in 3 human xenograft cancer models is studied as follows.
(§2) Xenograft studies are carried out as described in Graff et al. (2005) Cancer Res. 65:7462-7469. Five million human cancer cells representing non-small cell lung cancer (line A549; ATCC, accession no. CCL-185), hormone refractory prostate cancer (line PC-3; ATCC, accession no. CRL-1435), and ER-/PR-HER2-breast cancer (line MDA-231; ATCC, accession no. HTB-26) are injected subcutaneously in the flank of 6-8 week old, athymic nude mice (Harlan, Indianapolis, Ind.) in a 1:1 mixture of serum-free growth medium and matrigel (Becton Dickinson, Bedford, Mass., catalogue # 354234). Mice are monitored daily for palpable tumors.
(§3) When tumor volumes reach ˜50-100 mm^3, mice are randomized to treatment groups (Graff et al. (2007) J. Clin. Invest. 117:2638-48). Body weight is monitored each time tumors are measured.
(§4) For treatment, all mice are injected intravenously with the eIF-4E ASO in saline in a total volume of 200 μl. The ASO consists of the nucleotide sequence 5′-[…]-3′ (SEQ ID NO:1), in which every internucleoside linkage is a phosphorothioate linkage, nucleotides 1-5 and 16-20 reading from the 5′ end to the 3′ end each comprise a 2′-O-(2-methoxyethyl) sugar, nucleotides 6-15 are 2′-deoxynucleotides, every cytosine residue is a 5-methylcytosine, and which is in the form of a sodium salt. The mice are first injected with an initial loading dose of 50 mg/kg ASO for 3 consecutive days, followed by 50 mg/kg thrice weekly thereafter.
(§5) Taxotere® (docetaxel) dosing begins 8 days after the first ASO dose to allow time for reduction of eIF-4E protein expression. Mice are dosed with 2.5 or 10 mg/kg Taxotere® (Sanofi-Aventis) intraperitoneally (IP) in 1% ethanol in 5% dextrose water in a volume of 200 μl once weekly for 3 weeks.
(§6) Tumor volumes are calculated measuring the largest (L) and smallest (W) diameters with a caliper. The formula is: Volume=L×W^2×0.534. Tumor volume data are transformed to a log scale to equalize variance across time and treatment groups. The log volume data are analyzed with a two-way repeated measures analysis of variance by time and treatment using SAS PROC MIXED software (SAS Institute Inc, Cary, N.C.) using the spatial power covariance structure. Treatment groups are compared to the control group at each time point and overall. The data may be plotted as means and standard errors for each treatment group versus time. Additivity is assessed in two ways: (1) as an overall interaction effect between the ASO and Taxotere® in the repeated measures analysis, and (2) by using the Bliss Independence method on the final day of the study (C. I. Bliss (1939) Ann. Appl. Biol. 26:585-615). These two methods yield the same results.
(§7) The observed percent reductions in mean tumor volume at the conclusion of each study resulting from the various treatments are shown in Table 4. These are calculated as: […]
(§8) The “Expected if Additive” percent reductions in mean tumor volume shown in Table 4 are calculated using the Bliss Independence definition of additivity, as follows: […]

[2] = tested on: A549 Non-Small Cell Lung Cancer Xenograft; assay: A549 non-small cell lung cancer xenograft tumor volume in mice; conditions: for Mean Tumor Volume: ASO 50 mg/kg i.v., docetaxel 10 mg/kg IP once weekly, from 8 days after first ASO dose; for Percent Reduction in Mean Tumor Volumes (observed): NSCLC A549, Day 50, vs. vehicle control, negative = reduction, docetaxel 10 mg/kg
Experimental: as §1, §2, §3, §4, §5, §6, §7, §8

[3] = tested on: MDA-231 Breast Cancer Xenograft; assay: MDA-231 breast cancer xenograft tumor volume in mice; conditions: for Percent Reduction in Mean Tumor Volumes (observed): Breast MDA-231, Day 33, vs. vehicle control, negative = reduction, + = increase, Taxotere 2.5 mg/kg; for Mean Tumor Volume: ASO 50 mg/kg i.v., Taxotere 2.5 mg/kg IP once weekly, from 8 days after first ASO dose
Experimental: as §1, §2, §3, §4, §5, §6, §7, §8

Row | Compound | Mean Tumor Volume ([1]; Day 7) [mm^3] | Mean Tumor Volume ([1]; Day 12) [mm^3] | Mean Tumor Volume ([1]; Day 15) [mm^3] | Mean Tumor Volume ([1]; Day 19) [mm^3] | Mean Tumor Volume ([1]; Day 22) [mm^3] | Mean Tumor Volume ([1]; Day 27) [mm^3] | Mean Tumor Volume ([1]; Day 29) [mm^3] | Mean Tumor Volume ([1]; Day 33) [mm^3] | Mean Tumor Volume ([1]; Day 35) [mm^3] | Percent Reduction in Mean Tumor Volumes (observed) [1] | Mean Tumor Volume ([2]; Day 7) [mm^3] | Mean Tumor Volume ([2]; Day 10) [mm^3] | Mean Tumor Volume ([2]; Day 15) [mm^3] | Mean Tumor Volume ([2]; Day 18) [mm^3] | Mean Tumor Volume ([2]; Day 22) [mm^3] | Mean Tumor Volume ([2]; Day 25) [mm^3] | Mean Tumor Volume ([2]; Day 29) [mm^3] | Mean Tumor Volume ([2]; Day 32) [mm^3] | Mean Tumor Volume ([2]; Day 36) [mm^3] | Mean Tumor Volume ([2]; Day 39) [mm^3] | other results
1 | CC(=O)O[C@@]12CO[C@@H]1C[C@H](O)[C@@]1(C)C(=O)[C@H](O)C3=C(C)[C@@H](OC(=O)[C@H](O)[C@@H](NC(=O)OC(C)(C)C)c4ccccc4)C[C@@](O)([C@@H](OC(=O)c4ccccc4)[C@H]21)C3(C)C [Docetaxel, (2R,3S)—N-carboxy-3-phenylisoserine,N-tert-butyl ester, 13-ester with 5β-20-epoxy-1,2α,4,7β,10β,13α-hexahydroxytax-11-en-9-one 4-acetate 2-benzoate, trihydrate, reference compound] | 46.3 | 106.8 | 134.7 | 164.8 | 171.7 | 157.4 | 162.7 | 161.6 | 167.0 | −69.5%* | 49.7 | 56.7 | 114.8 | 70.0 | 135.8 | 170.1 | 257.0 | 261.5 | 290.0 | 282.3 | Mean Tumor Volume ([2]; Day 43): 342.6 mm^3; Mean Tumor Volume ([2]; Day 46): 310.2 mm^3; Mean Tumor Volume ([2]; Day 50): 343.8 mm^3; Percent Reduction in Mean Tumor Volumes (observed) [2]: −29.6%; Percent Reduction in Mean Tumor Volumes (observed) [3]: −1.4%; Mean Tumor Volume ([3]; Day 5): 78.7 mm^3; Mean Tumor Volume ([3]; Day 8): 130.1 mm^3; Mean Tumor Volume ([3]; Day 12): 180.9 mm^3; Mean Tumor Volume ([3]; Day 15): 221.0 mm^3; Mean Tumor Volume ([3]; Day 19): 270.3 mm^3; Mean Tumor Volume ([3]; Day 22): 333.9 mm^3; Mean Tumor Volume ([3]; Day 26): 384.9 mm^3; Mean Tumor Volume ([3]; Day 29): 450.4 mm^3; Mean Tumor Volume ([3]; Day 33): 529.6 mm^3
2 | d(P-thio) ([2′-O-(2-methoxyethyl)] m5rU-([2′-O-(2-methoxyethyl)] rG-([2′-O-(2-methoxyethyl)] m5rU-([2′-O-(2-methoxyethyl)] m5rC-([2′-O-(2-methoxyethyl)] rA-T-A-T-T-m5C-m5C-T-G-G-A-([2′-O-(2-methoxyethyl)] m5rU-([2′-O-(2-methoxyethyl)] m5rC-([2′-O-(2-methoxyethyl)] m5rC-([2′-O-(2-methoxyethyl)] m5rU-([2′-O-(2-methoxyethyl)] m5rU) (antisense eT*eG*eT*e[5mC]*eA*dT*dA*dT*dT*d[5mC]*d[5mC]*dT*dG*dG*dA*eT*e[5mC]*e[5mC]*eT*eT) [eIF-4E ASO] | 49.8 | 88.3 | 130.3 | 159.0 | 218.8 | 294.5 | 343.9 | 424.0 | 491.2 | −10.2% | 52.7 | 69.4 | 113.7 | 79.1 | 139.5 | 149.0 | 220.1 | 249.5 | 256.6 | 239.1 | Mean Tumor Volume ([2]; Day 43): 313.2 mm^3; Mean Tumor Volume ([2]; Day 46): 292.3 mm^3; Mean Tumor Volume ([2]; Day 50): 404.0 mm^3; Percent Reduction in Mean Tumor Volumes (observed) [2]: −17.3%; Percent Reduction in Mean Tumor Volumes (observed) [3]: +16.6%; Mean Tumor Volume ([3]; Day 5): 78.9 mm^3; Mean Tumor Volume ([3]; Day 8): 129.4 mm^3; Mean Tumor Volume ([3]; Day 12): 166.6 mm^3; Mean Tumor Volume ([3]; Day 15): 221.0 mm^3; Mean Tumor Volume ([3]; Day 19): 268.2 mm^3; Mean Tumor Volume ([3]; Day 22): 356.3 mm^3; Mean Tumor Volume ([3]; Day 26): 435.9 mm^3; Mean Tumor Volume ([3]; Day 29): 574.1 mm^3; Mean Tumor Volume ([3]; Day 33): 626.2 mm^3; Effect on mean tumor volume (in words) ([3]; breast cancer model, ASO alone): non-statistically significant increase in mean tumor volume
